Where “and” joins values, the source holds several entries; their conditions need not be identical. Identical values can stand only once. Toxic doses and inconclusive results are not listed.
Tested on: L1210 leukemia ip in BDF1 mice, survival T/C
Assay: NCI In Vivo Anticancer Drug Screen. Data for tumor model L1210 Leukemia (intraperitoneal) in B6D2F1 (BDF1) mice
Conditions: endpoint: mean survival time, higher = longer survival
Method in brief: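 Transplanted-tumor mice were given test agent; controls received vehicle only. Survival readings from the two groups were divided (treated over control).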

[1] = dose: 75.0 mg/kg/injection, schedule: Q01DX001 (ip), vehicle: saline
[2] = dose: 100.0 mg/kg/injection, schedule: Q01DX001 (ip), vehicle: carboxymethylcellulose (CMC)
[3] = dose: 100.0 mg/kg/injection, schedule: Q01DX001 (ip), vehicle: saline
[4] = dose: 200.0 mg/kg/injection, schedule: Q01DX001 (ip), vehicle: saline
[5] = dose: 400.0 mg/kg/injection, schedule: Q01DX001 (ip), vehicle: saline
[6] = dose: 50.0 mg/kg/injection, schedule: Q01DX001 (ip), vehicle: saline
[7] = dose: 100.0 mg/kg/injection, schedule: Q01DX009 (ip), vehicle: Klucel (hydroxypropylcellulose) (HPC)
[8] = dose: 200.0 mg/kg/injection, schedule: Q01DX009 (ip), vehicle: Klucel (hydroxypropylcellulose) (HPC)
[9] = dose: 200.0 mg/kg/injection, schedule: Q04DX003 (ip), vehicle: Klucel (hydroxypropylcellulose) (HPC)
[10] = dose: 400.0 mg/kg/injection, schedule: Q04DX003 (ip), vehicle: Klucel (hydroxypropylcellulose) (HPC)
[11] = dose: 50.0 mg/kg/injection, schedule: Q01DX001 (ip), vehicle: carboxymethylcellulose (CMC)
[12] = dose: 200.0 mg/kg/injection, schedule: Q01DX001 (ip), vehicle: carboxymethylcellulose (CMC)
[13] = dose: 100.0 mg/kg/injection, schedule: Q01DX009 (ip), vehicle: saline with Tween-80

SMILES: CO[C@]12[C@@H](COC(=O)NCCO)C3=C(C(=O)C(C)=C(N)C3=O)N1C[C@@H]1[C@H]2N1C (stereo not given in full)
- T/C [1]: 112 % of control

SMILES: NC(=S)N/N=C1/CCc2ccccc21
- T/C [2]: 113 % of control

SMILES: CCC(CC)c1cccc2c(C(CC)CC)cccc12
- T/C [3]: 98 % of control
- T/C [4]: 96 % of control
- T/C [5]: 96 % of control

SMILES: Nc1cc(NCc2ccccc2)nc(=O)[nH]1
- T/C (dose: 100.0 mg/kg/injection, schedule: Q01DX001 (ip), vehicle: gum acacia): 97 % of control
- T/C (dose: 200.0 mg/kg/injection, schedule: Q01DX001 (ip), vehicle: gum acacia): 95 % of control
- T/C (dose: 400.0 mg/kg/injection, schedule: Q01DX001 (ip), vehicle: gum acacia): 101 % of control

SMILES: CCCCCCc1ccc2c(c1)CC(CCCC)C2 (stereo not given)
- T/C [6]: 101 % of control
- T/C [3]: 104 % of control
- T/C [4]: 98 % of control
- T/C [5]: 101 % of control

SMILES: CC1(C)COC(c2ccccc2Br)=N1
- T/C [7]: 107 % of control
- T/C (dose: 100.0 mg/kg/injection, schedule: Q04DX003 (ip), vehicle: Klucel (hydroxypropylcellulose) (HPC)): 104 % of control and 105 % of control
- T/C [8]: 104 % of control
- T/C [9]: 97 % of control and 105 % of control
- T/C (dose: 400.0 mg/kg/injection, schedule: Q01DX009 (ip), vehicle: Klucel (hydroxypropylcellulose) (HPC)): 93 % of control
- T/C [10]: 93 % of control and 100 % of control

SMILES: O=C(N/N=C/c1ccco1)c1cccnc1
- T/C [7]: 97 % of control
- T/C [8]: 101 % of control

SMILES: CCN(CC)c1ccc(N=Nc2ccccc2)cc1
- T/C [11]: 93 % of control
- T/C [2]: 86 % of control
- T/C [12]: 96 % of control
- T/C (dose: 400.0 mg/kg/injection, schedule: Q01DX001 (ip), vehicle: carboxymethylcellulose (CMC)): 98 % of control

SMILES: O=S1OCC=CCO1
- T/C [11]: 108 % of control
- T/C [2]: 114 % of control
- T/C [12]: 105 % of control

SMILES: NCC(=O)c1ccc(-c2ccccc2)cc1
- T/C [3]: 97 % of control
- T/C (dose: 100.0 mg/kg/injection, schedule: Q04DX003 (ip), vehicle: saline): 90 % of control
- T/C [4]: 92 % of control
- T/C (dose: 200.0 mg/kg/injection, schedule: Q04DX003 (ip), vehicle: saline): 98 % of control
- T/C [5]: 97 % of control

SMILES: Cc1ccnc(NS(=O)(=O)c2ccc(N=NC3SC(=S)NC3=O)cc2)n1 (stereo not given)
- T/C [1]: 100 % of control
- T/C (dose: 150.0 mg/kg/injection, schedule: Q01DX001 (ip), vehicle: saline): 101 % of control
- T/C (dose: 300.0 mg/kg/injection, schedule: Q01DX001 (ip), vehicle: saline): 98 % of control

SMILES: N#Cc1cn[nH]c1N
- T/C (dose: 100.0 mg/kg/injection, schedule: Q01DX001 (ip), vehicle: saline with Tween-80): 98 % of control
- T/C (dose: 200.0 mg/kg/injection, schedule: Q01DX001 (ip), vehicle: saline with Tween-80): 95 % of control
- T/C (dose: 400.0 mg/kg/injection, schedule: Q01DX001 (ip), vehicle: saline with Tween-80): 103 % of control

SMILES: CCOC(=O)C(Cc1ccc2ccccc2n1)C(C)=O (stereo not given)
- T/C (dose: 50.0 mg/kg/injection, schedule: Q01DX009 (ip), vehicle: DMSO): 86 % of control
- T/C (dose: 100.0 mg/kg/injection, schedule: Q01DX009 (ip), vehicle: DMSO): 102 % of control

SMILES: Cc1nc(N)c2nonc2n1
- T/C [13]: 89 % of control

SMILES: CC1(C)CCCC(C)(C)N1
- T/C [6]: 94 % of control

SMILES: Fc1cccc2ccccc12
- T/C [13]: 105 % of control
- T/C (dose: 200.0 mg/kg/injection, schedule: Q01DX009 (ip), vehicle: saline with Tween-80): 87 % of control

SMILES: S=C1N(C2CCCCC2)CCN1C1CCCCC1
- T/C (dose: 100.0 mg/kg/injection, schedule: Q04DX002 (ip), vehicle: Klucel (hydroxypropylcellulose) (HPC)): 97 % of control

SMILES: CNc1ccc2cc(Br)ccc2c1
- T/C (dose: 100.0 mg/kg/injection, schedule: Q01DX005 (ip), vehicle: Klucel (hydroxypropylcellulose) (HPC)): 107 % of control
- T/C (dose: 200.0 mg/kg/injection, schedule: Q01DX005 (ip), vehicle: Klucel (hydroxypropylcellulose) (HPC)): 107 % of control
- T/C [9]: 95 % of control
- T/C (dose: 400.0 mg/kg/injection, schedule: Q01DX005 (ip), vehicle: Klucel (hydroxypropylcellulose) (HPC)): 95 % of control
- T/C [10]: 101 % of control
